# Measurements published in ChEMBL document CHEMBL1201862, “PubChem BioAssay data set” (2004).
# Active and inactive are the calls of the source.
# Assays:
# HEK293 = assay: inhibitors of LMP1-driven NF-kB reporter, dose response, cell-based, HEK293, luciferase, cherry-pick (AID 588343); assay type: functional; details: Homo sapiens
# [1] = Shn3 3'UTR reporter inhibitors, dose response, cell-based, Clone20 osteoblasts, firefly luciferase, cherry-picked (AID 624132); assay type: functional;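 note: firefly luciferase luminescence from reporter carrying the Shn3 3'UTR in osteoblasts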
# [2] = HepG2 cell cytotoxicity, dose response, cytotoxicity control for Shn3 inhibitor project, CellTiter-Glo, cherry-picked (AID 624134); assay type: functional, cell-based
# [3] = control 3'UTR Renilla luciferase suppression, dose response, counter-screen for Shn3 inhibitor project, cell-based, Clone20-Shn3RL, cherry-picked (AID 624133); assay type: functional
# Cytochrome P450 3A4 = Cytochrome P450 3A4 (Homo sapiens, UniProt P08684);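 note: CYP3A4 tested as one member of a cytochrome P450 panel screen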
# Cytochrome P450 3A4, sequence (P08684 whole entry): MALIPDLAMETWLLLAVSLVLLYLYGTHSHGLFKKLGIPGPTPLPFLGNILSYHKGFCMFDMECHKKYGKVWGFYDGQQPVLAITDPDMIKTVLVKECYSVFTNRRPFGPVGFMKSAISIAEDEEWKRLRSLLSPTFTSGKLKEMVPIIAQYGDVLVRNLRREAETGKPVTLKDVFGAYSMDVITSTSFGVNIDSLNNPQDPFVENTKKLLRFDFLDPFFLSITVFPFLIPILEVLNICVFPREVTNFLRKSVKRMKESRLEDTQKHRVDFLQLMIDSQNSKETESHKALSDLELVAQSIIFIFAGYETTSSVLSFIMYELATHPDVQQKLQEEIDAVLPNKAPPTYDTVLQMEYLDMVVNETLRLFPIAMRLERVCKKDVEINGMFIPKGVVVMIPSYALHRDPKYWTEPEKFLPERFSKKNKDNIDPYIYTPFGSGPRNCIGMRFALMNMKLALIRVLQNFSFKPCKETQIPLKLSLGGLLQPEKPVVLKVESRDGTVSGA
# Vero = Vero cell cytotoxicity, cytotoxicity control for flavivirus capping enzyme inhibitors (AID 588742); assay type: functional; details: Chlorocebus sabaeus
# Genome polyprotein = Genome polyprotein (dengue virus type 2, UniProt P29990); assay: Dengue-2 NS5 methyltransferase inhibitors, primary screen, biochemical, confirmation dose response (AID 588689); assay type: functional
# Genome polyprotein, sequence (P29990 2492-3391 limits assumed): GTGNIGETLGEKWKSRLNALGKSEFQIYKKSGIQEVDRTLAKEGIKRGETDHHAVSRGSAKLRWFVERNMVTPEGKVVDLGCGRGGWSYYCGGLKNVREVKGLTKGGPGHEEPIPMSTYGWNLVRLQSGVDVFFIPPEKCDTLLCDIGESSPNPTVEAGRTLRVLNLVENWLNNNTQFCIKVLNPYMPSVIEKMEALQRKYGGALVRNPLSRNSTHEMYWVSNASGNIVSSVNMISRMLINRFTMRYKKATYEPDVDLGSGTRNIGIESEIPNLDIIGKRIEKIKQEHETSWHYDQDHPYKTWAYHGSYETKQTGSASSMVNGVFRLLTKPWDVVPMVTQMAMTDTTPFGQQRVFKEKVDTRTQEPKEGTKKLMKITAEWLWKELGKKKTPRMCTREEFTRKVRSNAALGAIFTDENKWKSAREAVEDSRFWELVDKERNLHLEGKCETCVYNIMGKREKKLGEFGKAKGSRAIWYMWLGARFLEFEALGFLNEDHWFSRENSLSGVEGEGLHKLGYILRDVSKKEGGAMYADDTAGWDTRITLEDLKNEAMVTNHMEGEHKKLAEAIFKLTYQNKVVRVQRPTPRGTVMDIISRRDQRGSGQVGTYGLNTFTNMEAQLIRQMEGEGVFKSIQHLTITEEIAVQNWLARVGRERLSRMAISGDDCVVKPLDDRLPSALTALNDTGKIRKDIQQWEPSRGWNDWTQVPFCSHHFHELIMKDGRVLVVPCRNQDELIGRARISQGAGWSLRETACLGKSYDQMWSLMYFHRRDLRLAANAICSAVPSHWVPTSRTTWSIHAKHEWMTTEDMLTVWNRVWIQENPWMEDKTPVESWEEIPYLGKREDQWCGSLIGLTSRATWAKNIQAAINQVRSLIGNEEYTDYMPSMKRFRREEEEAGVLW
# [4] = HEp-2 cell cytotoxicity, dose response, cytotoxicity control for RSV inhibitor project, HTS (AID 2410); assay type: functional; details: human respiratory syncytial virus
# Large T antigen = Large T antigen (Simian virus 40, UniProt P03070); assay type: functional, Betapolyomavirus macacae;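 note: Confirmatory-stage PubChem screen for compounds that inhibit SV40 T antigen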
# Large T antigen, sequence (P03070 whole entry, the tested form may be a part): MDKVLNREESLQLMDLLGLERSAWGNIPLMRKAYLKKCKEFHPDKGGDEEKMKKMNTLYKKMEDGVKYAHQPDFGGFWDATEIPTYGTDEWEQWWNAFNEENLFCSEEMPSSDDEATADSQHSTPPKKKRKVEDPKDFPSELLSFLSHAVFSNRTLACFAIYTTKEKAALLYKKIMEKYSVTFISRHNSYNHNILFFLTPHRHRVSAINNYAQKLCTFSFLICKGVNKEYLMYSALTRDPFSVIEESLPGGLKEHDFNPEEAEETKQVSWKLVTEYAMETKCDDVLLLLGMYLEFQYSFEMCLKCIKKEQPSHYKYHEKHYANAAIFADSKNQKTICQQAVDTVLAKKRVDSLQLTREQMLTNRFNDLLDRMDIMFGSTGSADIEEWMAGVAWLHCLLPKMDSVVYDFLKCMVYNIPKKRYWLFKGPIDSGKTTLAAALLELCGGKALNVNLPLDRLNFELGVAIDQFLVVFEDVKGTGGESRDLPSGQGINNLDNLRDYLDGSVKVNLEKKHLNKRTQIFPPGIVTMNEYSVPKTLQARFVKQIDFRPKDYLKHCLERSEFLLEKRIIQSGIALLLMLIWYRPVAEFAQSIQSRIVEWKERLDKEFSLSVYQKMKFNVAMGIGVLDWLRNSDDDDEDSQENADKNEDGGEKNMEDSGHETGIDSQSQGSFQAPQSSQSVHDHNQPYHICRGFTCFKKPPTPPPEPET
# [5] = molecular target: T1, Carboxy-terminal domain RNA polymerase II polypeptide A small phosphatase 1 (Homo sapiens, UniProt Q9GZU7); assay: inhibitors of CTDSP1, concentration-response testing, biochemical assay, absorbance-based, actives from ultra-high-throughput screening (AID 540297); assay type: functional
# T1 sequence (Q9GZU7 whole entry): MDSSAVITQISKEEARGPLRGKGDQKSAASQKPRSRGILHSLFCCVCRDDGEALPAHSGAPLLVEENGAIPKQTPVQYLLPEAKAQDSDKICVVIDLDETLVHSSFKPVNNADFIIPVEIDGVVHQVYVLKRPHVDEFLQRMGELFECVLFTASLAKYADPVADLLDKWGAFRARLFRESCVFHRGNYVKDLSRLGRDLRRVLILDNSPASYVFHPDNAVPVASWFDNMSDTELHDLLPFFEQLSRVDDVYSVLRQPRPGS
# [6] = molecular target: T2, Polyadenylate-binding protein 1 (Homo sapiens, UniProt P11940); assay: PABP1 MLLE–PAM2 interaction inhibitors, dose response, miRNA deadenylation inhibitor project, biochemical, fluorescence polarization, Cy5-PAM2 peptide, secondary (AID 602260); assay type: functional; details: read-out: IC50_Mean
# T2 sequence (P11940 whole entry): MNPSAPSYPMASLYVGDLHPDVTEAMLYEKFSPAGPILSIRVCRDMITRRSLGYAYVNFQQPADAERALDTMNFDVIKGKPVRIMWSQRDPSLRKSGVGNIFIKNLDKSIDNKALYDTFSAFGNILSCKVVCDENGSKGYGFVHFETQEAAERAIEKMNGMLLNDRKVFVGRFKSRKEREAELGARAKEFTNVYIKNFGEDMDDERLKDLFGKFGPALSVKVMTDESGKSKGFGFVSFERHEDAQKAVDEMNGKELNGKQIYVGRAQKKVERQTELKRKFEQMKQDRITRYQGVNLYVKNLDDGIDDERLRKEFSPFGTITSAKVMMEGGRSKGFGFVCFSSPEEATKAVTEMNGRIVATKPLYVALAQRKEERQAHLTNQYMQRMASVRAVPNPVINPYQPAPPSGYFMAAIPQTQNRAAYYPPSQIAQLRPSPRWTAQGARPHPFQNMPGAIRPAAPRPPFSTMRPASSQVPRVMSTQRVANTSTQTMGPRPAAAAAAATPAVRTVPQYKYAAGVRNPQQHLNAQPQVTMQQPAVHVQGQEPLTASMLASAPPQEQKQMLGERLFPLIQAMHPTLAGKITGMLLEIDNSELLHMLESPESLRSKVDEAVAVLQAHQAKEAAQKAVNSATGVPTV
# [7] = molecular target: T2, Polyadenylate-binding protein 1; assay: PABP1 MLLE–PAM2 binding inhibitor potency, dose response, biochemical, fluorescence polarization, FITC-PAM2 peptide (AID 602259); assay type: functional; details: read-out: IC50_Mean
# [8] = NIH-3T3 fibroblast cytotoxicity, dose response, cytotoxicity control, cell-based, fluorescence, Alamar Blue, secondary assay (AID 2327); assay type: functional;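 note: NIH-3T3 mouse fibroblasts cultured with fluconazole at 8 µg/mL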
# [9] = C. albicans growth with fluconazole, confirmation, fluorescence, retest (AID 2467); assay type: functional, cell-based
# [10] = inhibitors of intracellular T. cruzi replication, confirmation, NIH3T3 host cells, beta-gal luminescence (AID 2044); assay type: functional, cell-based;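 note: intracellular parasites grown in NIH/3T3 mouse fibroblasts as host cells; luminescent beta-galactosidase reporter signal from transgenic T. cruzi replicating inside host cells; inhibitors lower the luminescence signal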
# [11] = cytotoxicity toward NIH3T3 fibroblasts, dose response, counter-screen, cell-based, ATP luminescence, mouse fibroblasts (AID 2010); assay type: functional;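 note: cells exposed to compound for about 90 hours before reading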
# [12] = molecular target: T3, RNA-binding protein pos-1 (Caenorhabditis elegans, UniProt G5EF15); assay: inhibitors of POS-1/mex-3 RNA binding, dose response, biochemical, fluorescence polarization (AID 1964);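 note: purified POS-1 fused to maltose binding protein made in E. coli; potency of compounds blocking POS-1 binding to fluorescent RNA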
# T3 sequence (G5EF15 whole entry): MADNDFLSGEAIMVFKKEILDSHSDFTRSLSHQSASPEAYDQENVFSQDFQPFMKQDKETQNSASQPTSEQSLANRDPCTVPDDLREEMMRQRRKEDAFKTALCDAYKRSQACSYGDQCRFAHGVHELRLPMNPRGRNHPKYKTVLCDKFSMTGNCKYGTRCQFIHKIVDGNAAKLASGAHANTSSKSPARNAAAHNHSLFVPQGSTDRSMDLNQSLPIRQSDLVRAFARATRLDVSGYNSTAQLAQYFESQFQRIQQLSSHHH
# [13] = tested on: Streptococcus sp. 'group A'; assay: growth inhibition of control SK(-) GAS strain, dose response, counter-screen for streptokinase expression inhibitor project, luminescence, kanamycin, BacTiterGlo, confirmation (AID 1900); assay type: functional, organism-based
# [14] = molecular target: T4, Zinc finger protein mex-5 (Caenorhabditis elegans, UniProt Q9XUB2); assay: MEX-5/TCR-2 RNA interaction inhibitors, dose response, biochemical, C. elegans, fluorescence polarization (AID 1960)
# T4 sequence (Q9XUB2 whole entry): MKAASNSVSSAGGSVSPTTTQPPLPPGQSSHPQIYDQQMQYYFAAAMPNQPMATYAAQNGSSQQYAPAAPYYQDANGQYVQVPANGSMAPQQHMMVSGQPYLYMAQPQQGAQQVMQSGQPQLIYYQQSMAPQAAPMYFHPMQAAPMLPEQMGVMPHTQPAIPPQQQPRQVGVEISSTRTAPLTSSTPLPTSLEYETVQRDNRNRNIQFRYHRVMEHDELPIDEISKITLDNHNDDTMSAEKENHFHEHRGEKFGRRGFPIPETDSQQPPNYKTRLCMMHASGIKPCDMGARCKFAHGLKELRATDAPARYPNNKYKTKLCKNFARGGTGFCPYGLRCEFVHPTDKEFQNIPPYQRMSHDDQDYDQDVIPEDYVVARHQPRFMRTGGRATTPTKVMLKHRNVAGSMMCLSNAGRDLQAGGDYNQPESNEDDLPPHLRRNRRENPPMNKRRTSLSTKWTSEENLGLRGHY
# Streptokinase A = molecular target: T5, Streptokinase A (Streptococcus pyogenes serotype M1, UniProt P10520); assay: S. pyogenes streptokinase expression inhibitors, potency, dose response, plasminogen activation absorbance, OD405 (AID 1914); assay type: functional, Streptococcus pyogenes M1 GAS;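 note: secreted streptokinase activity via plasminogen activation per viability signal from cell pellet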
# T5 sequence (P10520 whole entry): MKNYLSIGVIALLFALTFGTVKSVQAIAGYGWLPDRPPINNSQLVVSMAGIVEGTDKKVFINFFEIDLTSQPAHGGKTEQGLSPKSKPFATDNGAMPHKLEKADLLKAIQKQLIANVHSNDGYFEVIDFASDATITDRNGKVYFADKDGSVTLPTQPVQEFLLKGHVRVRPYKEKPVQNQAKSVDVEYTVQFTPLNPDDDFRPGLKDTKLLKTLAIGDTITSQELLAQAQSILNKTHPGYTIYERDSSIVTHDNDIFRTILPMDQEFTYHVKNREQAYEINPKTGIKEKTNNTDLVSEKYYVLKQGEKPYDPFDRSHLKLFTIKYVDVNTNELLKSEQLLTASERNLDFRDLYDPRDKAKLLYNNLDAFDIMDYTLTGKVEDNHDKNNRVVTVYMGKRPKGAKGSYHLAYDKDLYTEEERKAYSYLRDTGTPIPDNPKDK
# Streptococcus = assay: Group A Streptococcus viability loss, dose response, counter-screen for streptokinase expression inhibitor project, luminescence, BacTiterGlo (AID 1915); assay type: functional, organism-based;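 note: potency for reduction of bacterial viability or growth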
# [15] = molecular target: Heat shock protein HSP 90-alpha (Homo sapiens, UniProt P07900); assay type: functional, organism-based
# [16] = molecular target: T6, Histone-lysine N-methyltransferase NSD2 (Homo sapiens, UniProt O96028); assay type: biochemical
# T6 sequence (O96028 whole entry): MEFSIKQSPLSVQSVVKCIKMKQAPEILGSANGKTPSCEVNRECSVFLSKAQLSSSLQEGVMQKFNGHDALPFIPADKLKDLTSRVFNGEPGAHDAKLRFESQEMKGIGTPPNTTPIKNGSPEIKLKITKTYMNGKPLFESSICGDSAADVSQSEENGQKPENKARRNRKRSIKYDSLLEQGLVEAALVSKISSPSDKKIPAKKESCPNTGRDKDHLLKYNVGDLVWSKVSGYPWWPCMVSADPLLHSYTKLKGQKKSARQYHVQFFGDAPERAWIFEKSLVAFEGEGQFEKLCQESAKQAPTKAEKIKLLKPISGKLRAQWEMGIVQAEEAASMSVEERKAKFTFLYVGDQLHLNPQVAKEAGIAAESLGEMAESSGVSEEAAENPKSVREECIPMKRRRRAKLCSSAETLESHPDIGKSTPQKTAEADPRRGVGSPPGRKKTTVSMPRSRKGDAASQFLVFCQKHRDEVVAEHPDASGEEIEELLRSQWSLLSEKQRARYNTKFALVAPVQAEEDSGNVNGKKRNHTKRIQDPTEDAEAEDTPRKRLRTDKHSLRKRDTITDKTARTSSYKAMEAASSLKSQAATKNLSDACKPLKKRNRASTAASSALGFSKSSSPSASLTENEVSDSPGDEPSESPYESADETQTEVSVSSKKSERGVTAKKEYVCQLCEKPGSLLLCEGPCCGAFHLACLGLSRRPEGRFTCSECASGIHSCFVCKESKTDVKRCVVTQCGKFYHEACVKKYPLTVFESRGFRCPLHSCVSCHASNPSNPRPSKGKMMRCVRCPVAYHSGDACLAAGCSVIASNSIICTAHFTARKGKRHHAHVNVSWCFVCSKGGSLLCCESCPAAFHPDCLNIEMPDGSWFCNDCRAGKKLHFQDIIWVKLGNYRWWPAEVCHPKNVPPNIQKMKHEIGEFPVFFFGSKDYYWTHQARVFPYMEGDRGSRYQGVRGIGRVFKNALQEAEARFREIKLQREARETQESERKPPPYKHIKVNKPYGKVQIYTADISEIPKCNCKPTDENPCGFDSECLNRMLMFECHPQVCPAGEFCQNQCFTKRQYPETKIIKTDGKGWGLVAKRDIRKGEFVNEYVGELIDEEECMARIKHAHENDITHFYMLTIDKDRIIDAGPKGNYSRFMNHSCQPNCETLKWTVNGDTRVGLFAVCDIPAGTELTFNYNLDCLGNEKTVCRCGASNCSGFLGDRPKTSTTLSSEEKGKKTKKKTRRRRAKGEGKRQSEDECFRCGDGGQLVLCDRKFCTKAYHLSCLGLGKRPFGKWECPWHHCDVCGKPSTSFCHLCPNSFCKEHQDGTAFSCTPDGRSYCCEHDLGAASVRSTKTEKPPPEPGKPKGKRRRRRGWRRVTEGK
# [17] = CRF-BP/CRF-R2 complex antagonists, dose response, cell-based, uHTS hits, 384-well (AID 651639); assay type: functional, Homo sapiens; details: read-out: IC50_Mean
# [18] = molecular target: FAD-linked sulfhydryl oxidase ALR (Homo sapiens, UniProt P55789); assay: inhibitors of human ALR sulfhydryl oxidase, dose response, biochemical, H2O2 detection, luminescence, cherry-pick (AID 493248)
# FAD-linked sulfhydryl oxidase ALR, sequence (P55789 whole entry): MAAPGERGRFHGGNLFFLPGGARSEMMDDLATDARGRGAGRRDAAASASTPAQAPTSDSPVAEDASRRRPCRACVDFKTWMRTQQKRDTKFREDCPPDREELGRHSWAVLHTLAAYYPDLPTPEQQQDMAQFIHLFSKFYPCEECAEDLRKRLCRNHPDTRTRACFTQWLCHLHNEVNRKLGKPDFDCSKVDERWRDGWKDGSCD
compound,measurement,setting,value
O=S(=O)(c1ccccc1)N1CCN(c2cc(-c3ccccc3)nc3ncnn23)CC1,AC50,HEK293,3.23 µM (active)
same,AC50,[1],1.12 µM (active)
same,AC50,[2],48.1 µM (active)
same,AC50,[3],5.98 µM (active)
same,AC50,Cytochrome P450 3A4,14.1 µM (inconclusive)
CCOC(=O)c1c2c(n(-c3ccc(OC)cc3)c1C)C(=O)C(=O)c1ccccc1-2,CC50,Vero,2.89 µM (active)
same,IC50,Genome polyprotein,47 µM (active)
same,AC50,[1],3.15 µM (active)
same,AC50,[2],3.74 µM (active)
same,AC50,[3],3 µM (active)
Cc1nc2sc(C(N)=O)c(N)c2c2c1CCCC2,AC50,HEK293,10.9 µM (active)
CCOC(=O)c1[nH]nc(-c2cc(CC)c(O)cc2O)c1-c1cscn1,CC50,[4],22.6 µM (active)
same,IC50,Large T antigen,20.6 µM (active)
C/C(=N\NC(=O)c1ccccc1O)c1ccc(NC(=O)c2ccccc2)cc1,IC50,[5],7.56 µM (active)
CC(=O)c1sc(C(=O)O)c(-c2ccco2)c1-c1ccco1,IC50,[5],15.5 µM (active)
COc1cc(/C=C2/C(=O)ON=C2C)ccc1OCc1cccc(F)c1,CC50,Vero,38.2 µM (active)
same,IC50,Genome polyprotein,24.1 µM (active)
same,IC50,[6],> 66 µM (inactive)
same,IC50,[7],42.6 µM (inactive)
CCC[n+]1c2ccccc2cc2ccccc21,EC50,[8],> 160 µM (inactive)
same,EC50,[9],0.672 µM (active)
same,IC50,Large T antigen,46.2 µM (active)
same,EC50,[10],0.157 µM (active)
same,EC50,[11],> 60 µM (not active)
CC(C)C1Nc2c(O)cc(Cl)c([N+](=O)[O-])c2C2C=CCC21 (configuration not stated),EC50,[8],21.9 µM (inconclusive)
same,EC50,[12],> 300 µM (not active)
same,EC50,[13],3.07 µM (active)
same,EC50,[14],58.5 µM (active)
same,EC50,Streptokinase A,> 150 µM (not active)
same,EC50,[9],0.227 µM (active)
same,EC50,Streptococcus,6.36 µM (active)
same,AC50,[15],8.49 µM (active)
same,CC50,Vero,27.8 µM (active)
same,IC50,Genome polyprotein,68.9 µM (active)
N=C1/C(=C\c2ccc(Br)o2)C(=O)N=C2SC(CC(=O)N3CCOCC3)=NN12,IC50,[5],18.3 µM (active)
same,AC50,[16],> 20 µM (inactive)
COc1cc(N=C(S)NCCC(c2ccccc2)c2ccccc2)c(OC)cc1Cl,IC50,[17],> 20 µM (inactive)
CCOc1ccccc1N=C(S)N1CCN(c2ccc(O)cc2)CC1,IC50,Large T antigen,6.28 µM (active)
N#CN=C(Nc1cccc(F)c1)SCc1ccccc1,IC50,[17],> 20 µM (inactive)
O=C(/C=C/c1ccco1)NCC(=O)N/N=C/c1ccc([N+](=O)[O-])cc1,IC50,[5],5.25 µM (active)
N#Cc1ccccc1CN1C(=O)S/C(=C/c2cccn2-c2ccc(C(=O)O)cc2)C1=O,EC50,[12],> 300 µM (not active)
same,EC50,[13],15.8 µM (active)
same,EC50,[14],44 µM (active)
same,EC50,Streptokinase A,> 150 µM (not active)
same,EC50,Streptococcus,61.7 µM (active)
same,AC50,[18],86.3 µM (active)
same,IC50,[5],5.85 µM (active)
